Assay results: ChEMBL document CHEMBL5678796, “A highly potent and selective farnesyltransferase inhibitor ABT-100 in preclinical studies” (Anticancer Drugs, 2005)
pEC50, pIC50: −log10 of the molar value.

What was measured:
[1] = Ratio of EC50 for inhibition of FTase in human HCT-15 cells expressing high level of P-gp1 using Ras as substrate assessed as inhibition of substrate post-translation processing in presence of 20% human serum to EC50 for inhibition of FTase in human HCT-15 cells expressing high level of P-gp1 using Ras as substrate assessed as inhibition of substrate post-translation processing in presence of 10% …; conditions: condition cancer
[2] = Half-life in rat at 5 mg/kg, iv; type: ADME, organism-based; conditions: in vivo
[3] = AUC in rat at 25 mg/kg, po; type: ADME, organism-based; conditions: in vivo
[4] = tested on: HCT-116; assay: Inhibition of VEGF secretion in human HCT-116 cells incubated for 72 hrs by ELISA; type: functional, cell-based; conditions: dose 0.1-3 µmol/L
[5] = Volume of distribution in rat at 5 mg/kg, iv; type: ADME, organism-based; conditions: in vivo
[6] = Ratio of EC50 for inhibition of FTase in human HCT-116 cells expressing low level of P-gp1 using Ras as substrate assessed as inhibition of substrate post-translation processing in presence of 20% human serum to EC50 for inhibition of FTase in human HCT-116 cells expressing low level of P-gp1 using Ras as substrate assessed as inhibition of substrate post-translation processing in presence of 10% …; conditions: condition cancer
[7] = Inhibition of FTase in H-Ras transformed mouse NIH3T3 cells using Ras as substrate assessed as inhibition of substrate prenylation in presence of 10% bovine serum by immunoblot analysis; type: cell-based
[8] = Cmax in rat at 5 mg/kg, po; type: ADME, organism-based; conditions: in vivo
[9] = AUC in rat at 5 mg/kg, po; type: ADME, organism-based; conditions: in vivo
[10] = Half-life in dog at 2.5 mg/kg, iv; type: ADME, organism-based, Canis lupus familiaris; conditions: in vivo
[11] = Inhibition of recombinant bovine FTase incubated for 30 mins in presence of [3H]FPP by SPA based Topcount scintillation plate reader analysis; set-up: species or system Bos taurus
[12] = Inhibition of FTase in human HCT-116 cells expressing low level of P-gp1 using Ras as substrate assessed as inhibition of substrate post-translation processing in presence of 10% FBS by immunoblot analysis; type: cell-based
[13] = tested on: NIH3T3; assay: Inhibition of anchorage-independent growth in H-Ras transformed mouse NIH3T3 cells assessed as inhibition of colony formation incubated for 14 days in presence of 10% bovine serum by imaging based soft agar colony formation assay; type: functional, cell-based
[14] = tested on: HCT-116; assay: Antitumor activity against human HCT-116 cells xenografted in nu/nu CD1 mouse assessed as increase in life span at 12.5 mg/kg, sc preinoculated with cells for 5 days followed by once daily compound administration for 21 days and measured on day 25 relative to vehicle in time to 1 cm^3 tumor; type: functional; conditions: HCT-116, 600 h, time 25 day
[15] = Cmax in rat at 25 mg/kg, po; type: ADME, organism-based; conditions: in vivo
[16] = tested on: HCT-116; assay: Antitumor activity against human HCT-116 cells xenografted in nu/nu CD1 mouse assessed as reduction in tumor volume by measuring tumor to control ratio at 12.5 mg/kg, sc preinoculated with cells for 5 days followed by once daily compound administration for 21 days and measured on day 25; type: functional; conditions: time 25 day
[17] = Inhibition of recombinant human FTase incubated for 30 mins in presence of [3H]FPP by SPA based Topcount scintillation plate reader analysis
[18] = tested on: HCT-116; assay: Inhibition of anchorage-independent growth in human HCT-116 cells assessed as inhibition of colony formation incubated for 14 days in presence of 10% FBS by imaging based soft agar colony formation assay; type: functional, cell-based
[19] = tested on: HCT-116; assay: Antitumor activity against human HCT-116 cells xenografted in nu/nu CD1 mouse assessed as reduction in tumor volume by measuring test to control ratio at 50 mg/kg, sc preinoculated with cells for 5 days followed by once every 2 days compound administration for 11 times and measured on day 22; type: functional; conditions: time 22 day
[20] = Inhibition of FTase in human HCT-15 cells expressing high level of P-gp1 using Ras as substrate assessed as inhibition of substrate post-translation processing in presence of 20% human serum by immunoblot analysis; type: cell-based
[21] = tested on: HCT-116; assay: Antitumor activity against human HCT-116 cells xenografted in nu/nu CD1 mouse assessed as reduction in tumor volume by measuring tumor to control ratio at 25 mg/kg, sc preinoculated with cells for 5 days followed by once daily compound administration for 21 days and measured on day 25; type: functional; conditions: time 25 day
[22] = tested on: Mus musculus; assay: Antiangiogenic activity in human recombinant bFGF-stimulated CF1 mouse corneal model assessed as inhibition of new blood growth area at 100 mg/kg, sc prestimulated with bFGF followed by compound administration and measured on day 5 by slit lamp biomicroscopic analysis relative to control; type: functional; conditions: CF1, 120 h, time 5 day
[23] = Inhibition of FTase in human DLD-1 cells expressing moderate level of P-gp1 using Ras as substrate assessed as inhibition of substrate post-translation processing in presence of 10% human serum by immunoblot analysis; type: cell-based
[24] = tested on: HCT-116; assay: Antitumor activity against human HCT-116 cells xenografted in nu/nu CD1 mouse assessed as tumor volume at 12.5 mg/kg, sc preinoculated with cells for 5 days followed by once daily compound administration for 21 days and measured on day 25 (reference value: 1569 +/- 165 mm^3); type: functional; conditions: time 25 day
[25] = tested on: HCT-116; assay: Antitumor activity against human HCT-116 cells xenografted in nu/nu CD1 mouse assessed as tumor volume at 100 mg/kg, sc preinoculated with cells for 5 days followed by once every 2 days compound administration for 11 times and measured on day 22 (reference value: 1557 +/- 370 mm^3); type: functional; conditions: time 22 day
[26] = Half-life in dog at 2.5 mg/kg, po; type: ADME, organism-based, Canis lupus familiaris; conditions: in vivo
[27] = Selectivity index, ratio of IC50 for inhibition of bovine GGTase 1 to IC50 for inhibition of recombinant human FTase
[28] = tested on: Mus musculus; assay: Antiangiogenic activity in human recombinant VEGF-stimulated CF1 mouse corneal model assessed as inhibition of new blood growth area at 100 mg/kg, sc prestimulated with VEGF followed by compound administration and measured on day 7 by slit lamp biomicroscopic analysis relative to control; type: functional; conditions: CF1, 168 h, time 7 day
[29] = tested on: Mus musculus; assay: Antiangiogenic activity in human recombinant bFGF-stimulated CF1 mouse corneal model assessed as inhibition of new blood growth area at 50 mg/kg, sc prestimulated with bFGF followed by compound administration and measured on day 5 by slit lamp biomicroscopic analysis relative to control; type: functional; conditions: CF1, 120 h, time 5 day
[30] = AUC in rat at 5 mg/kg, iv; type: ADME, organism-based; conditions: in vivo
[31] = tested on: NIH3T3; assay: Inhibition of VEGF secretion in mouse NIH3T3 cells incubated for 72 hrs ELISA; type: functional, cell-based; conditions: dose 0.1-3 µmol/L

**Q.** For `Cn1cncc1[C@](O)(COc1ccc(C#N)cc1-c1ccc(OC(F)(F)F)cc1)c1ccc(C#N)cc1` [ABT-100], which “Ratio EC50” value [1] is on record?
**A.** Its value is 1.5.

**Q.** And the half-life [2]?
**A.** The half-life was 2.3 h.

**Q.** What about the AUC [3] of the same molecule?
**A.** Its AUC is 4620 ng·h/mL.

**Q.** And the inhibition [4]?
**A.** Its inhibition is “Dose-Dependent Effect”.

**Q.** And the Vd [5]?
**A.** Its Vd is 5.6 L/kg.

**Q.** And the “Ratio EC50” value [6]?
**A.** Its value is 1.5.

**Q.** And the pEC50 [7]?
**A.** The pEC50 was 9.14.

**Q.** What about the Cmax [8] of the same molecule?
**A.** The Cmax was 80 ng/mL.

**Q.** What about the AUC [9] of the same molecule?
**A.** Its AUC is 450 ng·h/mL.

**Q.** And the half-life [10]?
**A.** Its half-life is 6.8 h.

**Q.** What about the pIC50 [11] of the same molecule?
**A.** Its pIC50 is 9.89.

**Q.** What about the pEC50 [12] of the same molecule?
**A.** Its pEC50 is 9.37.

**Q.** What about the pEC50 ([13]; NIH3T3, 336 h) of the same molecule?
**A.** The pEC50 was 9.05.

**Q.** And the inhibition ([13]; time 14.0 day)?
**A.** Its inhibition is “Dose-Dependent Effect”.

**Q.** And the ILS at 12.5 mg/kg [14]?
**A.** The ILS at 12.5 mg/kg was 61%.

**Q.** And the Cmax [15]?
**A.** Its Cmax is 740 ng/mL.

**Q.** And the T/C [16]?
**A.** Its T/C is 39%.

**Q.** What about the pIC50 [17] of the same molecule?
**A.** The pIC50 was 10.30.

**Q.** What about the pEC50 ([18]; HCT-116, 336 h) of the same molecule?
**A.** Its pEC50 is 8.21.

**Q.** And the inhibition ([18]; time 14.0 day)?
**A.** Its inhibition is “Dose-Dependent Effect”.

**Q.** And the T/C [19]?
**A.** Its T/C is 65%.

**Q.** What about the pEC50 [20] of the same molecule?
**A.** Its pEC50 is 8.96.

**Q.** And the T/C [21]?
**A.** The T/C was 32%.

**Q.** And the inhibition in vivo at 100 mg/kg [22]?
**A.** The inhibition in vivo at 100 mg/kg was 49%.

**Q.** What about the pEC50 [23] of the same molecule?
**A.** The pEC50 was 9.40.

**Q.** And the Activity [24]?
**A.** The Activity was 721 mm3.

**Q.** And the Activity [25]?
**A.** Its Activity is 691 mm3.

**Q.** What about the half-life [26] of the same molecule?
**A.** The half-life was 5.9 h.

**Q.** What about the Ratio IC50 [27] of the same molecule?
**A.** Its Ratio IC50 is over 100000.

**Q.** And the inhibition in vivo at 100 mg/kg [28]?
**A.** The inhibition in vivo at 100 mg/kg was 39%.

**Q.** What about the inhibition in vivo at 50 mg/kg [29] of the same molecule?
**A.** The inhibition in vivo at 50 mg/kg was 34%.

**Q.** What about the AUC [30] of the same molecule?
**A.** Its AUC is 3010 ng·h/mL.

**Q.** And the inhibition [31]?
**A.** Its inhibition is “Dose-Dependent Effect”.
